{
  "source": "patent US20110118337A1",
  "about": "“Method of Using Compositions Comprising MIR-192 and/or MIR-215 for the Treatment of Cancer” (Merck Sharp & Dohme Corp., priority 2008, published 2011)",
  "key": {"[1]": {"test_system": "A549 cells", "assay": "miRNA and p21 expression by quantitative RT-PCR after adriamycin treatment", "format": "cell-based", "description": "(§1) TOV21G cells and A549 cells were obtained from the American Type Culture Collection (ATCC). TOV21G p53 and A549 p53 matched pair cell lines were created by stably infecting TOV21G and A549 cells with a lentivirus encoding either H1-term or p53 shRNA. Cells were cultured in Dulbecco's Modified Eagles Medium, supplemented with 10% fetal bovine serum, streptomycin, penicillin and L-glutamine.\n(§2) MicroRNA expression was measured in the p53 matched cell lines (p53+/+ or p53−/− sh) either untreated or following treatment with various doses of the DNA damaging agent adriamycin (0, 10, 50 and 200 nM adriamycin). Forty-eight hours post treatment, RNA was harvested and the expression levels of miR-34a, miR-192, miR-215 and p21 were determined by quantitative RT-PCR with Taqman analysis carried out as described in Raymond C. K. et al., RNA 11: 1737-1744 (2005)."}, "[2]": {"test_system": "TOV21G cells", "assay": "miRNA and p21 expression by quantitative RT-PCR after adriamycin treatment", "format": "cell-based", "description": "as §1, §2"}, "[3]": {"test_system": "HCT116DICER^ex5 cells", "assay": "Cell cycle FACS screen of pools of three siRNAs per gene (G1 after nocodazole, G2/M after aphidicolin)", "format": "cell-based, human", "conditions": "pools of 3 siRNAs/gene at 100 nM final, FACS 66 hours post-transfection, average of two experiments", "from_the_text": "To identify targets whose modulation influences the cell cycle arrest phenotype observed with miR-192 expression, the 62 candidate genes identified as described in Example 2 and shown in TABLE 3 were silenced individually by transfecting a pool of 3 gene-specific siRNA duplexes per gene (each directed to a different region of the gene) into HCT116DICER^ex5 cells. The siRNA duplex sequences (3 duplexes per gene) used to target each of the 62 genes are shown below in TABLE 5. The siRNA duplex oligonucleotides were obtained from Sigma-Genesys, as described in Linsley, P. S. et al., Mol Cell Biol 27:2240-2252 (2007).\nHCT116DICER^ex5 cells were transiently transfected with pools of three different siRNA duplexes per gene at a 100 nM final concentration using Lipofectamine RNAiMax (Invitrogen), according to the manufacturer's instructions. At 48 hours post transfection, cells were left untreated, treated with nocodazole (100 ng/mL, Sigma-Aldrich), or treated with aphidicolin (2 μg/mL, Sigma-Aldrich) for an additional 18 hours before harvesting. The cells transfected with the siRNA pools were then screened by FACS analysis as described in Example 3 for the percentage of cells arrested in G1 or G2/M as compared to the negative siRNA luciferase control.\nThe siRNA pools tested in this screen were ranked according to the percentage of cells arrested in G1 or G2/M following transfection, as compared with a negative control siRNA targeting luciferase. To avoid being misled by possible RNAi off-target effects, the siRNA pools were deconvoluted to identify genes for which at least 2 different siRNA duplexes from the pool caused the cell cycle arrest phenotype (data not shown).\nTABLE 6 summarizes the data obtained 66 hours post-transfection by FACS analysis showing the cell cycle distribution of the HCT116DICER^ex5 cells transfected with siRNA pools of 3 siRNAs/gene. Each pool was analyzed in two separate experiments, and the average percentage of the cells trapped in G1 (following nocodazole treatment), or G2/M (following aphidicolin treatment) are shown in TABLE 6."}, "[4]": {"test_system": "HCT116DICER^ex5 cells", "assay": "Cell cycle FACS analysis of siRNAs against top G1 and G2 arrest genes (nocodazole or aphidicolin)", "format": "cell-based, human", "conditions": "100 nM siRNA", "description": "Of the 62 genes shown above in TABLE 6, the 10 genes whose targeting by siRNA caused the largest percentage of cells to arrest in G1, listed below in TABLE 7, were transfected into HCT116DICER^ex5 cells in another experiment as follows.\nHCT116DICER^ex5 cells were transfected with […] miR-192 or 100 nM siRNA against luciferase, or 100 nM siRNA (one siRNA duplex of the pool of three) against the putative miR-192 target of interest, as indicated in TABLES 7 and 8. At 48 hours post transfection, cells were treated with nocodazole or aphicicolin for an additional 18 hours prior to FACS analysis. The results for the nocodazole treated cells (% of cells in G1) are provided in TABLE 7, and graphically illustrated in FIG. 3A. The results for the aphidicolin treated cells (% of cells in G2) are provided in TABLE 8 and graphically illustrated in FIG. 3B."}, "[5]": {"test_system": "HCT116DICER^ex5 cells", "assay": "Transfection of siRNA pools (G1 or G2 gene set) at suboptimal levels, cell cycle FACS analysis (nocodazole or aphidicolin)", "format": "cell-based, human", "conditions": "100 nM, 66 hours post transfection", "description": "[…] At 48 hours post-transfection into HCT116DICER^ex5 cells, the cells were treated with nocodazole for an additional 18 hours prior to FACS analysis.\n[…] At 48 hours post-transfection into HCT116DICER^ex5 cells, the cells were treated with aphidicolin for an additional 18 hours prior to FACS analysis."}, "[6]": {"test_system": "HCT116DICER^ex5 cells", "assay": "Cell cycle distribution by propidium iodide FACS after miR-192 duplex transfection (untreated, nocodazole or aphidicolin)", "format": "cell-based, human", "conditions": "for % Cells with 2N (G1/S) / % Cells with 4N (G2/M): 10 nM duplex, 66 hours after transfection", "description": "At 48 hours post transfection, cells were left untreated, treated with nocodazole (100 ng/mL, Sigma-Aldrich), or treated with aphidicolin (2 μg/mL, Sigma-Aldrich) for an additional 18 hours before harvesting. The cells were then trypsinized, collected, fixed and stained with a propidium iodide solution. BrdU-labeling was performed according to the manufacturer's instructions (BD-Pharmigen). For phospho-histone H3 analysis, cells were fixed and permeabilized with IPF buffer (100 mM PIPES pH 6.8, 10 mM EDTA, 1 mM MgCl2, 0.2% Triton X-100, 4% formaldehyde) and stained with propidium iodide and anti-phospho-histone H3 antibody conjugated to Alexa-488 (Cell Signaling Technology). The cells were analyzed using a FACSCalibur flow cytometer (Beacton Dickinson) and FlowJo software (Tree Star, Inc.)."}, "[7]": {"test_system": "3′ UTRs of the 18 candidate genes in U-2-OS cells", "assay": "3′ UTR luciferase reporter analysis", "format": "cell-based", "conditions": "10 nM, 24 hours post-transfection", "from_the_text": "In order to test whether miR-192 is regulating these genes through seed sequence-specific recognition of binding sites within their 3' UTRs, a series of reporter constructs were generated containing the entire natural 3' UTRs of the 18 candidate genes (BCL2, CDC7, CUL5, DLG5, DTL, ERCC3, HOXA10, HRH1, LMNB2, MAD2L1, MCM10, MIS12, MPHOSPH1, PIM1, PRPF38A, […]1, SEPT10 and SMARCB1) inserted downstream of a luciferase open reading frame (SwitchGear Genomics) to create 3' UTR luciferase reporter plasmids. U-2-OS cells were transfected first with 10 nM miR-192 or 10 nM miR-192 mutant, and subsequently transfected 4 to 6 hours later with these 3' UTR reporter plasmids. A renilla luciferase expression plasmid from dual luciferase system (Promega) was used as an internal control. Luciferase activity was measured at 24 hours post-transfection, and quantified relative to renilla luciferase activity."}, "[8]": {"test_system": "CDC7, LMNB2, MAD2L1 and CUL5", "assay": "Western blot analysis", "format": "cell-based, human", "conditions": "HCT116DICER^ex5 cells, 10 nM, data not shown", "description": "HCT116DICER^ex5 cells were transfected with 10 nM siRNA against luciferase or 10 nM miR-192 or 10 nM miR-192 mutant, and lysates were prepared at 28 hours or 48 hours post-transfection. For immunoblotting, 30 μg of whole cell lysate extracted in a modified RIPA buffer (150 mM NaCl, 50 mM Tris pH 7.4, 1 mM EDTA, 1% NP-40, 0.1% SDS) was used per sample. CDC7, LMNB2, MAD2L1 and CUL5 were detected by Western blot using anti-CDC7 (sc-56275, Santa Cruz Biotechnology Inc.), anti-LMNB2 (MAB3536, Millipore), anti-MAD2L1 (ab55452, Abcam) and anti-CUL5 (Invitrogen) antibodies, and protein levels were compared to the level of β-actin expression as detected by an anti-β-actin antibody (Abcam)."}},
  "note": "d = 2'-deoxy (DNA); r = 2'-OH (RNA)",
  "data": [
    {"compound": "COc1cccc2c1C(=O)c1c(O)c3c(c(O)c1C2=O)C[C@@](O)(C(=O)CO)C[C@@H]3O[C@H]1C[C@H](N)[C@H](O)[C@H](C)O1", "note": "[adriamycin]", "values": [
      {"measurement": "miR-192, miR-215 and miR-34a expression", "setting": "[1]; A549 cells, adriamycin 10, 50 or 200 nM, 48 hours post treatment", "result": "up-regulation"},
      {"measurement": "expression of miR-192 and miR-215", "setting": "[1]; p53 deficient A549 cells, adriamycin 10, 50 or 200 nM", "result": "not"},
      {"measurement": "p21 expression", "setting": "[1]; p53 knockdown A549 cells", "result": "lack of p21 induction"},
      {"measurement": "expression of miR-192 and miR-215", "setting": "[1]; wild type (p53+/+) A549 cells, adriamycin 10, 50 or 200 nM", "result": "upregulated in a dose dependent manner"},
      {"measurement": "miR-192, miR-215 and miR-34a expression", "setting": "[2]; TOV21G cells, adriamycin 10, 50 or 200 nM, 48 hours post treatment", "result": "up-regulation"},
      {"measurement": "expression of miR-192 and miR-215", "setting": "[2]; p53 deficient TOV21G cells, adriamycin 10, 50 or 200 nM", "result": "not"},
      {"measurement": "p21 expression", "setting": "[2]; p53 knockdown TOV21G cells", "result": "lack of p21 induction"},
      {"measurement": "expression of miR-192 and miR-215", "setting": "[2]; wild type (p53+/+) TOV21G cells, adriamycin 10, 50 or 200 nM", "result": "upregulated in a dose dependent manner"}
    ]},
    {"compound": "Luc siRNA: Control siRNA targeting luciferase, SEQ ID NOS: 11/12 (chain 1 UCGAAGUAUUCCGCGUACGTT; chain 2 CGUACGCGGAAUACUUCGATT; sugars from the 5' end r19 d2, backbone not given here) [reference compound]", "values": [
      {"measurement": "% G2 (Avg), Aphidicholin+", "setting": "[3]; aphidicolin 2 μg/mL 18 h", "result": 18.9, "unit": "%"},
      {"measurement": "% G1 (Avg), Nocodazole+", "setting": "[3]; nocodazole 100 ng/mL 18 h", "result": 13.8, "unit": "%"},
      {"measurement": "% Cells in G2", "setting": "[4]; aphidicolin 18 hours from 48 hours post transfection", "result": 19.2, "unit": "%"},
      {"measurement": "% Cells in G1", "setting": "[4]; nocodazole 18 hours from 48 hours post transfection", "result": 18.5, "unit": "%"},
      {"measurement": "% G1", "setting": "[5]; after aphidicolin treatment", "result": 66.3, "unit": "%"},
      {"measurement": "% G2", "setting": "[5]; after aphidicolin treatment", "result": 15.6, "unit": "%"},
      {"measurement": "% G1", "setting": "[5]; nocodazole", "result": 11.7, "unit": "%"},
      {"measurement": "% G2", "setting": "[5]; nocodazole", "result": 83.8, "unit": "%"}
    ]},
    {"compound": "miR-192 mutant: Seed region mutant miR-192 duplex, guide CUGCACUAUGAAUUGACAGCC (SEQ ID NO:8), passenger SEQ ID NO:9 (sense CUGUCAAUUCAUAGUGCUGAU; listed as RNA, chemistry not given here) [reference compound]", "values": [
      {"measurement": "% Cells with 2N (G1/S)", "setting": "[6]; aphidicolin 2 μg/mL 18 hours", "result": 66.5, "unit": "%"},
      {"measurement": "% Cells with 4N (G2/M)", "setting": "[6]; aphidicolin 2 μg/mL 18 hours", "result": 16.1, "unit": "%"},
      {"measurement": "% Cells with 2N (G1/S)", "setting": "[6]; nocodazole 100 ng/mL 18 hours", "result": 17, "unit": "%"},
      {"measurement": "% Cells with 4N (G2/M)", "setting": "[6]; nocodazole 100 ng/mL 18 hours", "result": 66.3, "unit": "%"},
      {"measurement": "accumulation in the G2/M phase", "setting": "[6]; treated with aphidicolin", "result": "did not"},
      {"measurement": "% Cells with 2N (G1/S)", "setting": "[6]; untreated", "result": 49.9, "unit": "%"},
      {"measurement": "% Cells with 4N (G2/M)", "setting": "[6]; untreated", "result": 30.8, "unit": "%"},
      {"measurement": "regulation of 3′ UTR luciferase reporters of the 18 genes", "setting": "[7]", "result": "not"},
      {"measurement": "protein level", "setting": "[8]", "result": "not"}
    ]}
  ]
}
